Source: the Kinase Knowledgebase extract (Sharma et al. 2016)

Key:
PIK3CA (human) [1] = molecular target: PIK3CA (human) (UniProt P42336); assay: Enzyme Assay
PIK3CA (human) [2] = molecular target: PIK3CA (human) (UniProt P42336); assay: Assessment of Cell Proliferation in MDA-MB-361.1 Cells; settings: mda-mb-361
PIK3CA (human) [3] = molecular target: PIK3CA (human) (UniProt P42336); assay: Assessment of Cell Proliferation in PC3 Cells; settings: pc-3

Chain of PIK3CA (human) (P42336 whole entry, looked up): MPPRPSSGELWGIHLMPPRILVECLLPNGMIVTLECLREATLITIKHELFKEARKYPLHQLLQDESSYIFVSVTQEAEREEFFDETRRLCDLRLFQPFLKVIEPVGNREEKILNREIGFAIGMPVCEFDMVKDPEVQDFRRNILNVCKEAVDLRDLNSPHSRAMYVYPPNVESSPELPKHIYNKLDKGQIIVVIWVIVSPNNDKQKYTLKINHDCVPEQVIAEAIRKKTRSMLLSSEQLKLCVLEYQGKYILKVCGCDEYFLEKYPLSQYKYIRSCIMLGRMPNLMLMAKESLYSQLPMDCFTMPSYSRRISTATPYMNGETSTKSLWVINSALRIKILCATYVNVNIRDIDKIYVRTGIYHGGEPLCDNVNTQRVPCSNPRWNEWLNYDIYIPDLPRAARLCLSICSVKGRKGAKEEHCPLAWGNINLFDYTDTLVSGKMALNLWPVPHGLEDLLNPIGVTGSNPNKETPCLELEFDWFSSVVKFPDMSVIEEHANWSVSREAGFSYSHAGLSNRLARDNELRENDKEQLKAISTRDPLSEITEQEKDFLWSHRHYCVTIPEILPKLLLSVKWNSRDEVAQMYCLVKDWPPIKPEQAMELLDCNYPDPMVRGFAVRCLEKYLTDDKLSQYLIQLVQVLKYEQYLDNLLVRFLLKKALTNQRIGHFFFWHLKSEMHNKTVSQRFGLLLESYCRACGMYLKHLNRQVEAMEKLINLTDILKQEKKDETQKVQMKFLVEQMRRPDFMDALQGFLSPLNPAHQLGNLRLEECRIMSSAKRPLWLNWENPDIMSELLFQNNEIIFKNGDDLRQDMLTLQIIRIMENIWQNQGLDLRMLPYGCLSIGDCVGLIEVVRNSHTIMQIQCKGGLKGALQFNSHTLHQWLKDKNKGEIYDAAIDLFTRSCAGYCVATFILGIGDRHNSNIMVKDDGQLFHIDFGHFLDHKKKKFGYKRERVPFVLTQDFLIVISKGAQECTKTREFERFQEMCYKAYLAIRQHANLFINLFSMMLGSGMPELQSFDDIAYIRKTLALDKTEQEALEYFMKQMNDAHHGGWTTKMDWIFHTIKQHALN

IC50 (PIK3CA (human) [1]) [nM] | EC50 (PIK3CA (human) [2]) [nM] | EC50 (PIK3CA (human) [3]) [nM] | Structure (SMILES)
35.2 | – | – | CC1(C)OCCn2c1nc1c(N3CCOCC3)nc(-c3cncc(C(N)=O)c3)nc12
1 | 237 | 215 | CC1(C)OCCc2c1sc1c(N3CCOCC3)nc(-c3cnc(N)nc3)nc21
201 | 1500 | 1400 | CC1(C)CN(c2nc(-c3cnc(N)nc3)nc3c2nc2n3CCOC2(C)C)CCO1
685 | – | – | CC1(C)OCCn2c1nc1c(N3CCOCC3)nc(-c3ccnc(N)c3)nc12
8.26 | – | – | Nc1ncc(-c2nc(N3CCOCC3)c3nc4n(c3n2)CCC4)cn1
3.45 | – | – | Nc1ncc(-c2nc(N3CCOCC3)c3nc4n(c3n2)CCO[C@@H]4C(F)(F)F)cn1
14 | 3100 | 3800 | C[C@@H]1CN(c2nc(-c3cnc(N)nc3)nc3c2nc2n3CCOC2(C)C)C[C@H](C)O1
11.2 | – | – | Nc1cc(C(F)(F)F)c(-c2nc(N3CCOCC3)c3nc4n(c3n2)CCOC4)cn1
2100 | 315 | 208 | CCNC(=O)Nc1ccc(-c2nc(N3CCOCC3)c3c(n2)C2(C)CCOC2N3C)cc1 (centres undefined)
6.89 | 889 | 1900 | CC1c2nc3c(N4CCOCC4)nc(-c4cnc(N)nc4)nc3n2CCN1C (centres undefined)
4.28 | – | – | CC1NC(=O)Cn2c1nc1c(N3CCOCC3)nc(-c3cnc(N)nc3)nc12 (centres undefined)
14 | – | – | CC1(C)OCCn2c1nc1c(N3CCOCC3)nc(-c3cnc4[nH]ccc4c3)nc12
3.88 | – | – | Nc1ncc(-c2nc(N3CCOCC3)c3nc4n(c3n2)CCCC4)cn1
41.7 | – | – | CCNC(=O)Nc1ccc(-c2nc(N3CCOCC3)c3nc4n(c3n2)CCOC4(C)C)cc1
– | 10000 | 10000 | CN(C)c1cnc(-c2nc(N3CCOCC3)c3nc4n(c3n2)CCOC4(C)C)cn1
4.58 | – | – | CC1(C)OCCn2c1nc1c(N3CCOCC3)nc(-c3cccc(O)c3)nc12
6.84 | – | – | Nc1ncc(-c2nc(N3CCOCC3)c3nc4n(c3n2)CCCO4)cn1
541 | – | – | CC1(C)OCCn2c1nc1c(N3CCOCC3)nc(-c3ccc(N)cc3)nc12
– | 10000 | 10000 | CC1(C)OCCn2c1nc1c(N3CCOCC3)nc(-c3ccc(N)cn3)nc12
3.89 | – | – | CC1(C)OCCn2c1nc1c(N3CCOCC3)nc(-c3cnc(N)cc3C(F)(F)F)nc12
3.57 | 424 | 697 | Nc1ncc(-c2nc(N3CCOCC3)c3nc4n(c3n2)CCO[C@H]4C(F)(F)F)cn1
49 | – | – | CC(=O)Nc1ccc(-c2nc(N3CCOCC3)c3nc4n(c3n2)CCOC4(C)C)cn1
394 | 3400 | 3600 | CC1(C)OCCn2c1nc1c(N3C[C@@H]4C[C@H]3CO4)nc(-c3cnc(N)nc3)nc12

IC50 (PIK3CA (human) [1]) [nM] | EC50 (PIK3CA (human) [2]) [nM] | EC50 (PIK3CA (human) [3]) [nM] | Structure (SMILES)
19.8 | – | – | CC1(C)OCCn2c1nc1c(N3CCOCC3)nc(-c3cccc4[nH]ncc34)nc12
45.2 | – | – | Nc1ccc(-c2nc(N3CCOCC3)c3nc4n(c3n2)CCOC4C(F)(F)F)cn1 (centres undefined)
77.9 | 3200 | 2000 | Nc1ncc(-c2nc(N3CCOCC3)c3c(n2)N2CCC[C@H]2CO3)cn1
3.11 | – | – | CC[C@]1(C)OCCn2c1nc1c(N3CCOCC3)nc(-c3cnc(N)nc3)nc12
5.96 | – | – | CC[C@@]1(C)OCCn2c1nc1c(N3CCOCC3)nc(-c3cnc(N)nc3)nc12
21.5 | – | – | CN1CCn2c(nc3c(N4CCOCC4)nc(-c4cnc(N)nc4)nc32)C1=O
79.7 | 920 | 1100 | Oc1cccc(-c2nc(N3CCOCC3)c3nc4n(c3n2)CCOC4C(F)(F)F)c1 (centres undefined)
6.71 | – | – | CNC(=O)Nc1ccc(-c2nc(N3CCOCC3)c3nc4n(c3n2)CCOC4(C)C)cc1
– | 10000 | 10000 | CC(C)Cn1cc(-c2nc(N3CCOCC3)c3nc4n(c3n2)CCOC4(C)C)cn1
50.7 | – | – | Nc1ccc(-c2nc(N3CCOCC3)c3nc4n(c3n2)CCCC4)cn1
242 | – | – | CC(=O)Nc1ncc(-c2nc(N3CCOCC3)c3nc4n(c3n2)CCOC4(C)C)cn1
1.37 | – | – | Nc1ncc(-c2nc(N3CCOCC3)c3nc4n(c3n2)CCC2(CC2)O4)cn1
638 | – | – | CC1(C)OCCn2c1nc1c(N3CCOCC3)nc(-c3ccccc3NS(C)(=O)=O)nc12
382 | – | – | CC1(C)OCCn2c1nc1c(N3CCOCC3)nc(-c3cn[nH]c3)nc12
5.09 | 958 | 1800 | CC1(C)CCn2c(nc3c(N4CCOCC4)nc(-c4cnc(N)nc4)nc32)O1
0.831 | 94 | 185 | CC1(C)OCCn2c1cc1c(N3CCOCC3)nc(-c3cnc(N)nc3)nc12
18.6 | – | – | CC1(C)OCCn2c1nc1c(N3CCOCC3)nc(-c3ccc(N)nc3)nc12
4.32 | – | – | Nc1ncc(-c2nc(N3CCOCC3)c3nc4n(c3n2)CCOC4)cn1
4.73 | – | – | CC1=COC(C)(C)c2nc3c(N4CCOCC4)nc(-c4cnc(N)nc4)nc3n21
337 | 1200 | 1300 | CC(C)NC(=O)Nc1ccc(-c2nc(N3CCOCC3)c3nc4n(c3n2)CCOC4(C)C)cc1
2.45 | – | – | Nc1ncc(-c2nc(N3CCOCC3)c3nc4n(c3n2)CCOC42COC2)cn1
45.2 | 4400 | 6900 | FC(F)(F)C1OCCn2c1nc1c(N3CCOCC3)nc(-c3cccc4[nH]ncc34)nc12 (centres undefined)
